Measured values taken from patent US20030232851A1, “Viral treatment” (The Procter & Gamble Company, priority 1999, published 2003).
Converted amounts (≈) assume the structure as drawn. “And” between values parts separate entries of the source, which are not always exact repeats. Equal entries are not always repeated. Where two headings read alike, the source gives them in different places.

Columns and labels:
[1] = system: HEPG22.2.15; experiment: Hepatitis B test: toxicity values; type: cell-based
[2] = system: Curvularia lunata; experiment: Anti-fungal activity (NCCLS M-27A based), Curvularia lunata; type: cell-based
Protocol: It was active against cryptococcus neoformans and curvularai lunata. The cidal activity for the C. neoformans is high enough that it is clear […] against this yeast. This test was conducted using a method based upon NCCLS reference method M-27A published in 1997. Solvent, medium and growth controls were set-up with the tests. Once these were read to validate the test performance, the QC fungi were read to insure they had expected results. These steps validated the test system. DMSO was used as a drug-chemical solvent. […] The 90% cut-off is necessary for azoles, which are static and not cidal. The FMC or cidal level was determined by sub-culturing a sample from each tube showing no growth.

[3] = biological target: HIV-1 integrase (Human immunodeficiency virus type 1 group M subtype B, UniProt P04585); experiment: HIV-1 integrase inhibition assay; type: biochemical; design: HIV-1 Integrase Inhibition, sample reading / HIV-1 Integrase Inhibition, mean: unit not given here; conditions: for HIV-1 Integrase Inhibition, sample reading: sample 1, sample 2
Source text: A biochemical integrase assay described by Craigie et at (HIV, vol. 2: A practical Approach) Biochemistry, Molecular Biology and Drug Discovery, Ed. J. Kam 1995) to screen agents for their ability to inhibit HIV-1 integrase. In this system, a kinased oligonucleotide serves as the target of 3′ processing and the subsequent strand transfer reaction. The 3′ processing reaction involves the removal of 2 nucleotides from the 3′ ends of the substrate and this is followed by the strand transfer reaction in which the 3′ ends are joined to the exposed 5′ ends. The 20 μl reaction mixture contains 25 mM MOPS (pH 7.2), […] BSA, 10 mM β-mercaptoethanol, 10% glycerol, 7.5 mM MnCl2, 25 nM (7 ng) substrate (Oligo's Etc., Wilsonville, Oreg.) and 200 nM (128 ng) integrase (NIAID AIDS Research and Reference Reagent Program, Bethesda, Md.). The reaction proceeds at 37° C. for 1-2 hours and is terminated by the addition of 20 μl of sequencing stop solution (JSB Amersham, Arlington Heights, Ill.). The reaction products are visualized by autoradiography following electrophoresis in 15% polyacrylamide 6M Urea gel. The substrate migrates as a 30 mer, the product of 3′ processing migrates as an N-2 band and the strand transfer products migrate more slowly at various sizes larger than the substrate.

[4] = system: HIV-1 cell line, CEMRF; type: cell-based; conditions: for reverse transcriptase data: 7 μg/ml
Protocol: A microtiter-based reveres transcriptase (RT) reaction is utilized (Buckheit et al (1991) AIDS Research and Human Retroviruses 7:295-302). Tritiated thymidine triphosphate (NEN)(TTP) is resuspended in distilled water at 5 Ci/ml. Poly rA and oligo dT are prepared as a stock solution which is kept at −20° C. The RT reaction buffer is prepared fresh on a daily basis and consists of 125 μl 1M EGTA, 125 μl water, 125 μl Triton X-100, 50 μl Tris (pH 7.4), 50 μl 1 MDDT, and 40 μl 1M MgCl2. These three solutions are mixed together in a ratio of 1 part TTP, 2.5 parts poly rA:oligo dT, 2.5 parts reaction buffer and 4 parts distilled water. Ten microliters of this reaction mixture is placed in a round bottom microtiter place and 15 μl of virus containing supernatant is added and mixed. The plate is incubated at 37° C. for 60 minutes. Following reaction, the reaction volume is spotted onto filter mats, washed 6 times for 5 minutes each in a 5% sodium phosphate buffer, 2 times for 1 minute each in distilled water, 2 times for 1 minute each in 70% ethanol, and then dried. The dried filter mat is placed in a plastic sample bag, Betaplate scintillation fluid is added and the bag is heat sealed. Incorporated radioactivity is quantified utilizing a Wallac Microbeta scintillation counter.
Acute infection of most established human cell lines with HIV-1 results in the eventual establishment of a constitutive virus-producing chronically infected cell line. The cells can be passaged for long periods of time in culture without loss of virus production. These cells may be utilized to evaluate the effects of anti-HIV compounds on syncytium formation or to evaluate the effects of anti-HIV compounds on levels of virus production from these cells. […] Each of the cells contains an integrated HIV genome or provirus. Chronically infected CEM, H9 and U937 cell lines have been prepared and cultured by Southern Research Institute, Frederick Md. and are available from them.
CEM-SS cells chronically infected with HIV isolate, for example SKI (CEM-SKI) are cultured in RPMI1640 tissue culture medium supplemented with 10% fetal bovine serum and antibiotics. Selection is performed by culturing the cells in the presence of the compound to be tested in T25 flasks. CEM-SKI or other infected cells with no added drug are used as the control cells. Cells are allowed to grow to a density of approximately 1×10^6 cells/ml and are then passaged at a 1:10 dilution. […] The drug concentration in the flask is then increased two-fold and the cells maintained as above.
The cell populations contain integrated copies of the HIV genome and constitutively produce HIV at relatively high levels or are latently infected and only produce virus after stimulation with phorbol esters, tumor necrosis factor or IL6 (U1 and ACH2).
A long term in vitro study of 2-(2-thienyl)-imidazolo [4,5-b]pyridine against an HIV-1 cell line, CEMRF, was conducted at three different levels. […] CEMRF is a chronic HIV cell line.

c1csc(-c2nc3cccnc3[nH]2)c1 [2-(2-thienyl)-imidazolo [4,5-b]pyridine]
Toxicity Values, % cell control ([1]; 0.64 μg/ml): 108.5%
Toxicity Values, mean ([1]; 0.64 μg/ml): 1.359
Toxicity Values, samples 1-3 ([1]; 0.64 μg/ml): 1.389 and 1.334 and 1.355
Toxicity Values, % cell control ([1]; 2 μg/ml): 101.1%
Toxicity Values, mean ([1]; 2 μg/ml): 1.266
Toxicity Values, samples 1-3 ([1]; 2 μg/ml): 1.121 and 1.246 and 1.432
Toxicity Values, % cell control ([1]; 6.4 μg/ml): 101.5%
Toxicity Values, mean ([1]; 6.4 μg/ml): 1.271
Toxicity Values, samples 1-3 ([1]; 6.4 μg/ml): 1.249 and 1.157 and 1.407
Toxicity Values, % cell control ([1]; 20 μg/ml): 30.7%
Toxicity Values, mean ([1]; 20 μg/ml): 0.385
Toxicity Values, samples 1-3 ([1]; 20 μg/ml): 0.404 and 0.389 and 0.361
Toxicity Values, % cell control ([1]; 64 μg/ml): 1.4%
Toxicity Values, mean ([1]; 64 μg/ml): 0.017
Toxicity Values, samples 1-3 ([1]; 64 μg/ml): 0.017 and 0.018
Toxicity Values, % cell control ([1]; 200 μg/ml): 1.4%
Toxicity Values, mean ([1]; 200 μg/ml): 0.017
Toxicity Values, samples 1-3 ([1]; 200 μg/ml): 0.018 and 0.017
TC50 ([1]; first experiment): 16.3 µg/mL (≈ 81 µM)
TC50 ([1]; replicate experiment): 16.8 µg/mL (≈ 83.5 µM)
MIC ([2]; Curvularia lunata, growth inhibited or reduced at least 90%): 0.03 µg/mL (≈ 0.149 µM)
activity against Curvularia lunata (in words) ([2]; in vitro): active
EC50 [3]: > 497 µM
HIV-1 Integrase Inhibition, mean ([3]; 0.1 μg/ml): 10577
HIV-1 Integrase Inhibition, sample reading ([3]; 0.1 μg/ml): 11155.2 and 9998.8
HIV-1 Integrase Inhibition, mean ([3]; 1 μg/ml): 10104
HIV-1 Integrase Inhibition, sample reading ([3]; 1 μg/ml): 10640.4 and 9568.4
HIV-1 Integrase Inhibition, mean ([3]; 10 μg/ml): 10580
HIV-1 Integrase Inhibition, sample reading ([3]; 10 μg/ml): 10814.1 and 10345.1
HIV-1 Integrase Inhibition, mean ([3]; 100 μg/ml): 7214
HIV-1 Integrase Inhibition, sample reading ([3]; 100 μg/ml): 7639.4 and 6788.6
reverse transcriptase data ([4]; day 4): 6521
reverse transcriptase data ([4]; day 67): 9241
reverse transcriptase data ([4]; day 71): 8422
reverse transcriptase data ([4]; day 74): 8643
resistance developing ([4]; by day 186 at the 15 and 30 μg/ml level): no indication of resistance developing
reverse transcriptase data on continuation (in words) ([4]; run through 242 days): data remained consistent
